Reference: patent publication US9261498B2, “Biomarker for sensitivity to mTOR inhibitor therapy in kidney cancer” (The Regents of the University of California, priority 2005, dated 2016)

System: SN12C-shVHL RNAi and ACHN-shVHL RNAi xenograft tumors
Experiment: Subcutaneous xenograft tumor growth, VHL knockdown tumors
Assay type: in vivo, SCID mice
Settings: 0.1 mg/kg CCI-779 daily
Method: FIGS. 1A-1E. Effects of VHL knockdown on sensitivity to CCI-779. (a) Immunoblotting of lysates derived from shRNA and control (empty vector, V) in SN12C, using antibodies against VHL (both isoforms detected), HIF-1α, HIF-2α, GLUT-1, CA-IX and β-Actin (as a loading control). (b) SN12C-CSCG and SN12C-VHLshRNA cells (1×10^5) were cultured in 10% serum rich media, in the presence of vehicle, 1 or 10 nM of CCI-779 for 5 days. Cell growth was measured by cell counts (n=3). […] (c) SN12C-CSCG (C1) and SN12C-CSCG shVHL RNA (C2) cells were injected into SCID mice at a dose of 1×10^6 cells per mouse (n=30). […] Phosphorylated-S6 protein in SN12C-CSCG and SN12C-VHL shRNA xenograft tumors treated with vehicle or 0.1 mg/kg of CCI-779 was measured by immunoblot C3 and C4). […]
For in vitro experiments, cells (5×10^4) were plated and treated with 1 and 10 nM CCI-779 (kind gift of J. Gibbons, Wyeth) or vehicle (ethanol). On day 5-post treatment, cells were trypsinized, resuspended in DMEM with 10% FBS and counted using the VI CELL counter (Beckman Coulter), according to the manufacturer's instructions. […] In vivo tumorigenicity was measured by injection of 5×10^5 SN12C-CSCG, ACHN-CSCG, SN12C-CSCG-VHLshRNAi, ACHN-CSCG-VHLshRNAi, SN12C-CSCG-VHLshRNAi-pBABE, SN12C-CSCG-VHLshRNAi-pBABE-HA-HIF-2α (P405A; P531A) cells in 100 μl of Matrigel (Collaborative Biomedical) subcutaneously into the flanks of SCID mice. […]

CO[C@H]1C[C@@H]2CC[C@@H](C)[C@@](O)(O2)C(=O)C(=O)N2CCCC[C@H]2C(=O)O[C@H]([C@H](C)C[C@@H]2CC[C@@H](OC(=O)C(C)(CO)CO)[C@H](OC)C2)CC(=O)[C@H](C)/C=C(\C)[C@@H](O)[C@@H](OC)C(=O)[C@H](C)C[C@H](C)/C=C/C=C/C=C/1C [CCI-779]
growth of the VHL shRNAi tumors: completely blocked the growth
